Source: patent publication US12590062B2, “PD-1/PD-L1 inhibitors” (Gilead Sciences, Inc., priority 2017, dated 2026)

Experiments:
[1] = target: PD-1/PD-L1 (Homo sapiens, UniProt Q9NZQ7); experiment: PD-1/PD-L1 biochemical protein-protein interaction assay (ALPHA); format: binding; details: 0.3 nM His tagged PD-L1, 2.5 nM biotinylated Fc-PD-1, 60 minutes at 25° C., read-out: IC50 PD-L1-PD-1 Alpha IC50-mono PD-L1-fcP-D1
Summary of the method: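 ALPHA bead proximity assay of extracellular domains: 0.3 nM His-PD-L1 with 2.5 nM biotinylated Fc-PD-1 in 25 mM Hepes pH 7.4, 150 mM NaCl, 3.4 mM EDTA, 0.005% Tween 20, 0.01% BSA, 60 min at 25 °C. Anti-His acceptor and streptavidin donor beads added; IC50 from four-parameter fit of signal loss.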

[2] = target: T1, PD-1/PD-L1 interaction (Homo sapiens, UniProt Q9NZQ7); experiment: PD-1/PD-L1 NFAT reporter co-culture assay; format: cell-based; details: Jurkat PD-1 NFAT-luciferase cells co-cultured with aAPC-PD-L1 CHO cells, 6 hrs at 37° C.; read-out: EC50 NFAT Luciferase
T1 construct: expressed in transfected cells; host or cells: CHO cells (aAPC-PD-L1) co-cultured with Jurkat cells overexpressing PD-1 and an NFAT-luciferase reporter
Summary of the method: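 Compounds are scored by restoration of NFAT-luciferase signal in PD-1-expressing Jurkat cells cultured 6 h at 37 °C on CHO cells presenting anti-CD3 and PD-L1; EC50 values derive from four-parameter curve fitting.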

[3] = target: T2, PD-L1 (Homo sapiens, UniProt Q9NZQ7); experiment: PD-L1/PD-L1 dimerization biochemical protein-protein interaction assay (ALPHA); format: binding; details: compound-induced PD-L1 dimerization, head prints '1 nM' (0.5 nM His-tagged PD-L1 and 0.5 nM FLAG-tagged PD-L1), read-out: AC50 PDL1 Dimer Alpha 1 nM
T2 construct: determine if they can specifically dimerize the extracellular domains of PD-L1
Summary of the method: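 ALPHA proximity assay of compound-induced dimerization of 0.5 nM His-tagged and 0.5 nM FLAG-tagged PD-L1 extracellular domains in Hepes pH 7.4 buffer, 2 h at 25 °C. Anti-His acceptor then anti-FLAG donor beads, 60 min each; AC50 from four-parameter fit.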

T1 sequence (Q9NZQ7 19-290): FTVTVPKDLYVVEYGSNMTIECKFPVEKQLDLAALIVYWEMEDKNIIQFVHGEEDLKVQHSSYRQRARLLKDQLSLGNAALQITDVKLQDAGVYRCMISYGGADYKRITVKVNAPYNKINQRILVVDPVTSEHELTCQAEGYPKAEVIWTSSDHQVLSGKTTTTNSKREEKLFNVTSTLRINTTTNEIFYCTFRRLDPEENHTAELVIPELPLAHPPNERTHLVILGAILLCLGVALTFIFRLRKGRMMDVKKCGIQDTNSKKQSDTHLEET
T2 sequence (Q9NZQ7 19-238 limits assumed): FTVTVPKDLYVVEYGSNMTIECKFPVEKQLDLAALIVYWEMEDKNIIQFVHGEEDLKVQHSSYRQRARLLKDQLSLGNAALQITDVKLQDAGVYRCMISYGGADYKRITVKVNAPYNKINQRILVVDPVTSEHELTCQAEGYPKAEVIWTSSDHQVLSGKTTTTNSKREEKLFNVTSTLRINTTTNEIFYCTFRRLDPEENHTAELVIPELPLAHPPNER
T2 sequence (Q9NZQ7 19-238 limits assumed): as above
Chain of PD-1/PD-L1 (Q9NZQ7 19-238 limits assumed): as above

Structure (SMILES)	IC50 [1]	EC50 [2]	AC50 [3]
Cc1c(COc2cc(OCc3cncc(C#N)c3)c(CN3CC[C@@H](O)C3)cc2Cl)cccc1-c1cccc(-c2ncc(CN3CC[C@@H](O)C3)cn2)c1C [Example 454]	1.01 nM	953 nM	943 nM
Cc1c(COc2cc(OCc3cncc(C#N)c3)c(CNC[C@@H](O)CC(=O)O)cc2Cl)cccc1-c1cccc(-c2ccc(OCCNCCO)c(C(N)=O)c2)c1C [Example 456]	0.269 nM	1230 nM	182 nM
Cc1c(COc2cc(OCc3cncc(C#N)c3)c(CN[C@@](C)(CO)C(=O)O)cc2Cl)cccc1-c1cc(F)cc(-c2ccc(CN(C)C)cc2)c1Cl [Example 457]	0.064 nM	1560 nM	49.3 nM
CNC(=O)c1cc(-c2cccc(-c3cccc(COc4cc(OCc5cncc(C#N)c5)c(CNC[C@@H](O)CC(=O)O)cc4Cl)c3C)c2C)ccc1OCCNCCO [Example 458]	0.325 nM	429 nM	139 nM
Cc1c(COc2cc(OCc3cncc(C#N)c3)c(CNC[C@@H](O)CC(=O)O)cc2Cl)cccc1-c1cccc(-c2ccc(CNC[C@@H](O)CC(=O)O)c(SC(F)F)c2)c1C [Example 460]	0.147 nM	112 nM	302 nM
N#CCOc1cc(-c2cccc(-c3cccc(-c4ccc(CNC[C@@H]5CCC(=O)N5)c(OCC#N)c4)c3Cl)c2Cl)ccc1CNC[C@@H]1CCC(=O)N1 [Example 463]	0.159 nM	123 nM	71.3 nM
Cc1c(COc2cc(OCc3cncc(C#N)c3)c(CNC[C@@H](O)CC(=O)O)cc2Cl)cccc1-c1cccc(-c2ccc(C3=NCCN3)c(OC(F)F)c2)c1C [Example 464]	0.099 nM	152 nM	87.6 nM
Cc1c(COc2cc(OCc3cncc(C#N)c3)c(CNC[C@@H](O)CC(=O)O)cc2Cl)cccc1-c1cccc(-c2ccc(C3=NCCN3)c(OCCCC#N)c2)c1C [Example 465]	0.116 nM	193 nM	84.8 nM
COc1ccc2cc(-c3cccc(-c4cccc(COc5cc(OCc6cncc(C#N)c6)c(CNC[C@@H](O)CC(=O)O)cc5Cl)c4C)c3C)ccc2c1CNC[C@@H](O)CC(=O)O [Example 468]	0.558 nM	183 nM	131 nM
Cc1c(COc2cc(OCc3cncc(C#N)c3)c(CN[C@@](C)(CO)C(=O)O)cc2Cl)cccc1-c1cccc(-c2ccc3c(c2)ncc(=O)n3CCN(C)C)c1C [Example 469]	0.064 nM	125 nM	73.5 nM
Cc1c(COc2nc(OCc3cc(C#N)cc(C#N)c3)c(CNC(C)(CO)C(=O)O)cc2Cl)cccc1-c1cccc(-c2ccc(OCCNCCO)cc2)c1C (stereo not drawn) [Example 471]	0.205 nM	144 nM	80 nM
Cc1c(COc2cc(OCc3cncc(C#N)c3)c(CNC[C@@H](O)CC(=O)O)cc2Cl)cccc1-c1cccc(-c2ccc3c(c2)CC(NCCO)C3)c1C (stereo partly drawn) [Example 473]	0.159 nM	86 nM	76.8 nM
Cc1c(COc2cc(OCc3cncc(C#N)c3)c(CN[C@@](C)(CO)C(=O)O)cc2Cl)cccc1-c1cccc(-c2ccc3c(cnn3CCN3CC[C@@H](O)C3)n2)c1C [Example 475]	0.088 nM	117 nM	134 nM
Cn1cc(CN2CC3(CCC(=O)N3)C2)c2ccc(-c3cccc(-c4cccc(-c5ccc6c(CN7CC8(CCC(=O)N8)C7)cn(C)c6n5)c4Cl)c3Cl)nc21 [Example 476]	1.11 nM	196 nM	149 nM
C[C@@](CO)(NCc1cc(Cl)c(OCc2cccc(-c3cccc(COc4cc(OCc5cncc(C#N)c5)c(CN[C@@](C)(CO)C(=O)O)cc4Cl)c3Br)c2Br)cc1OCc1cncc(C#N)c1)C(=O)O [Example 478]	0.064 nM	48 nM	268 nM
N#Cc1cncc(COc2cc(OCc3cccc(-c4cccc(COc5cc(OCc6cncc(C#N)c6)c(CNC[C@@H](O)CC(=O)O)cc5Cl)c4Br)c3Br)c(Cl)cc2CNC[C@@H](O)CC(=O)O)c1 [Example 479]	0.098 nM	45 nM	348 nM
Cc1c(COc2cc(OCc3cncc(C#N)c3)c(CNCCO)cc2Cl)cccc1-c1cccc(COc2cc(OCc3cncc(C#N)c3)c(CNCCO)cc2Cl)c1Br [Example 480]	1.12 nM	147 nM	114 nM
Cc1c(COc2cc(OCc3cncc(C#N)c3)c(CN[C@@](C)(CO)C(=O)O)cc2Cl)cccc1-c1cccc(COc2cc(OCc3cncc(C#N)c3)c(CN[C@@](C)(CO)C(=O)O)cc2Cl)c1Br [Example 481]	0.064 nM	155 nM	92.9 nM
Cc1c(COc2cc(OCc3cncc(C#N)c3)c(CNC(C)(C)C(=O)O)cc2Cl)cccc1-c1cccc(-c2ccc(CN(C)C)cc2)c1Br [Example 482]	0.064 nM	47 nM	25.5 nM
Cc1c(COc2cc(OCc3cncc(C#N)c3)c(CN[C@@](C)(CO)C(=O)O)cc2Cl)cccc1-c1cccc(-c2ccc(CN(C)C)cc2)c1Br [Example 483]	0.064 nM	69 nM	40.9 nM
Cc1c(COc2cc(OCc3cncc(C#N)c3)c(CNC[C@@H](O)CC(=O)O)cc2Cl)cccc1-c1cccc(-c2ccc(CN(C)C)cc2)c1Br [Example 484]	0.205 nM	138 nM	108 nM
CS(=O)(=O)c1cncc(COc2nc(OCc3cccc(-c4cccc(-c5ccc(OCCNCCO)cc5)c4Cl)c3Cl)c(Cl)cc2CNC[C@@H](O)CC(=O)O)c1 [Example 485]	0.321 nM	200 nM	61.3 nM
COc1nc(O[C@H]2CCc3c(-c4cccc(-c5cc(C)c(CNC[C@@H]6CCC(=O)N6)c(OC)n5)c4Cl)cccc32)c(Cl)cc1CN1CC[C@](C)(C(=O)O)C1 [Example 489]	0.064 nM	18 nM	18.3 nM
COc1nc(O[C@H]2CCc3c(-c4cccc(-c5cc(C)c(CNC[C@@H]6CCC(=O)N6)c(OC)n5)c4Cl)cccc32)c(Cl)cc1CN1CC[C@@H](C(=O)O)C1 [Example 490]	0.064 nM	19 nM	14.1 nM

The remaining molecules from weak to strong by IC50 [1], led by results:

IC50 [1]	EC50 [2]	AC50 [3]	Structure (SMILES)
1.04 nM	179 nM	360 nM	COc1cc(-c2cccc(-c3cccc(-c4ccc(CNC[C@@H]5CCC(=O)N5)c(OC)c4)c3Br)c2Br)ccc1CNC[C@@H]1CCC(=O)N1 [Example 477]
0.172 nM	1540 nM	686 nM	Cc1c(COc2cc(OCc3cncc(C#N)c3)c(CN[C@@](C)(CO)C(=O)O)cc2Cl)cccc1-c1cccc(-c2ncc(CN3CC[C@@H](O)C3)cn2)c1C [Example 455]
0.161 nM	197 nM	111 nM	Cc1c(COc2cc(OCc3cc(S(C)(=O)=O)cc(S(C)(=O)=O)c3)c(CN[C@@](C)(CO)C(=O)O)cc2Cl)cccc1-c1cccc(-c2ccc(CCCN3CC[C@@H](O)C3)cc2)c1C [Example 467]
0.096 nM	217 nM	127 nM	Cc1c(COc2cc(OCc3cncc(C(N)=O)c3)c(CN[C@@](C)(CO)C(=O)O)cc2Cl)cccc1-c1cccc(-c2ccc3c(c2)[C@@H](O)C[C@H]3N)c1C [Example 470]
0.064 nM	1200 nM	89.9 nM	Cc1c(COc2cc(OCc3cncc(C#N)c3)c(CN[C@@](C)(CO)C(=O)O)cc2Cl)cccc1-c1cccc(-c2ccc(OCCNCCO)c(C(=O)NC3CC3)c2)c1C [Example 459]
0.064 nM	47 nM	128 nM	Cc1c(COc2cc(OCc3cncc(C#N)c3)c(CNC[C@@H](O)CC(=O)O)cc2Cl)cccc1-c1cccc(-c2ccc(CNC[C@@H](O)CC(=O)O)c(OC(F)F)c2)c1C [Example 461]
0.064 nM	93 nM	44.1 nM	Cc1c(COc2cc(OCc3cncc(C#N)c3)c(CNC[C@@H](O)CC(=O)O)cc2Cl)cccc1-c1cccc(-c2ccc(C3=NCCN3)c(OCCCC#N)n2)c1C [Example 466]
0.064 nM	59 nM	137 nM	Cc1c(COc2cc(OCc3cncc(C#N)c3)c(CNC[C@@H](O)CC(=O)O)cc2Cl)cccc1-c1cccc(-c2ccc3c(c2)CC(NCC(=O)O)C3)c1C (stereo partly drawn) [Example 474]
0.064 nM	16 nM	25.2 nM	COc1nc(O[C@H]2CCc3c(-c4cccc(-c5cc(C)c(CNC[C@@H]6CCC(=O)N6)c(OC)n5)c4Cl)cccc32)c(Cl)cc1CN1CC(C(=O)O)C1 [Example 487]
0.064 nM	26 nM	25.6 nM	COc1nc(O[C@H]2CCc3c(-c4cccc(-c5cc(C)c(CNC[C@@H]6CCC(=O)N6)c(OC)n5)c4Cl)cccc32)c(Cl)cc1CN1CC[C@@](C)(C(=O)O)C1 [Example 488]
0.064 nM	21 nM	19.8 nM	COc1nc(O[C@H]2CCc3c(-c4cccc(-c5cc(C)c(CNC[C@@H]6CCC(=O)N6)c(OC)n5)c4Cl)cccc32)c(Cl)cc1CN1CC[C@H](C(=O)O)C1 [Example 491]
